The source made the active and inactive calls. The calls are words filed in the database; no cut-off is given here.
Tests used:
Progesterone receptor = target: T1, Progesterone receptor (Homo sapiens, UniProt P06401); assay: Inhibition of progesterone receptor
T1 sequence (P06401 whole entry): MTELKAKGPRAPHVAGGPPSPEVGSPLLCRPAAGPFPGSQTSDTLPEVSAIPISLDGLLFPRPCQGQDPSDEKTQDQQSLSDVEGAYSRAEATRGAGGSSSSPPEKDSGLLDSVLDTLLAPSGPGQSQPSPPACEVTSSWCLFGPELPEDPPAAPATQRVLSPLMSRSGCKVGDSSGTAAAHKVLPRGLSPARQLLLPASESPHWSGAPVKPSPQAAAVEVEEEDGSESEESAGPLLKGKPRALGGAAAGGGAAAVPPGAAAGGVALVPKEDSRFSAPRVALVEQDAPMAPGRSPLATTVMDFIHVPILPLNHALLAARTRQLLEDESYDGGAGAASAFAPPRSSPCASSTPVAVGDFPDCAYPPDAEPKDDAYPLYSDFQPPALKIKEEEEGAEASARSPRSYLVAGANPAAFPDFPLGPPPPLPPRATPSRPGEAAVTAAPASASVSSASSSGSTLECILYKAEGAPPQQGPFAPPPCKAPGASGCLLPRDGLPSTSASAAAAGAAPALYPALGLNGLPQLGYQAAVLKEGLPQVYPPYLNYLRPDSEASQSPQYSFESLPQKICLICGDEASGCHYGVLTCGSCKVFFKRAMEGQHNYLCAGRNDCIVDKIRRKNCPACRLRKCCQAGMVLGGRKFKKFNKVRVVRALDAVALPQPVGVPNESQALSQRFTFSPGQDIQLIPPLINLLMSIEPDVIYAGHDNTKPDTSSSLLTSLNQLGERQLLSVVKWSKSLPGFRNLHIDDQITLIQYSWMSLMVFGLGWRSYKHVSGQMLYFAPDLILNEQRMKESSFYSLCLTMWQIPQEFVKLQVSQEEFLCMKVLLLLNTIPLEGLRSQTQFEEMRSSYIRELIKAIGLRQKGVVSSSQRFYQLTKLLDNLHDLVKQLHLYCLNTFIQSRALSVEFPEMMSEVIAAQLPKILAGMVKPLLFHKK

Androgen receptor [1] = target: T2, Androgen receptor (Homo sapiens, UniProt P10275); assay: biochemical
T2 sequence (P10275 whole entry): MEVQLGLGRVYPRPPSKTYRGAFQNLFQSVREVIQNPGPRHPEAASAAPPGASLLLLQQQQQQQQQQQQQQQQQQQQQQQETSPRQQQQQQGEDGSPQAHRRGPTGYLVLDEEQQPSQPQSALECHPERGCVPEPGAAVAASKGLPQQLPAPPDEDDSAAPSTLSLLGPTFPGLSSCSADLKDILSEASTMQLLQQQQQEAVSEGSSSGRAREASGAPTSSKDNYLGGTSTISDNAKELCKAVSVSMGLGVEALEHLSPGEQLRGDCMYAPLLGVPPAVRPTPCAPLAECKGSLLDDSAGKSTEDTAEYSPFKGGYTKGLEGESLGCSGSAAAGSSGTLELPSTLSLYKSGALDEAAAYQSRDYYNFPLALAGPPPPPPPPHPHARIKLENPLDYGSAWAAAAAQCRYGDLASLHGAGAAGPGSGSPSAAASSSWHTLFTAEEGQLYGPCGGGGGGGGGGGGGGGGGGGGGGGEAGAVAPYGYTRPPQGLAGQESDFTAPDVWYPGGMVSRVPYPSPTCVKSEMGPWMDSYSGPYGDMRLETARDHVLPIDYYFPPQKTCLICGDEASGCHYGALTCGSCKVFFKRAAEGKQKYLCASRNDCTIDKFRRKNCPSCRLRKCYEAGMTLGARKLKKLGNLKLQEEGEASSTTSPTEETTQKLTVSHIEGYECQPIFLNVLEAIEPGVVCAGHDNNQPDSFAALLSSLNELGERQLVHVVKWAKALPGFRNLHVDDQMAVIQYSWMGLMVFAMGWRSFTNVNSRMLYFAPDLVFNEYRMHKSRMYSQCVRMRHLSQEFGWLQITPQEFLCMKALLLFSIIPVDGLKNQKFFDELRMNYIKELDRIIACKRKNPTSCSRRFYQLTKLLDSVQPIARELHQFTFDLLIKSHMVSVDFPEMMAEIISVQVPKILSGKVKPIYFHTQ
Description: Displacement of [3H]dihydrotestosterone from human androgen receptor expressed in Sf9 cells

Androgen receptor [2] = target: T2, Androgen receptor
Description: Antagonist activity against human androgen receptor expressed in human MDA-MB-453 cells assessed as inhibition of dihydrotestosterone-induced effect by luciferase receptor gene assay

Syrian golden hamster [3] = assay: Reduction of sebum ester production in golden syrian hamster ear topically dosed at 3% twice daily 5 days per week for two weeks; assay type: functional, Mesocricetus auratus; set-up: scale not given: the % may be the effect or the level left
[4] = Plasma clearance in Beagle dog at 0.8 mg/kg, iv after 24 hrs; assay type: ADME, organism-based, Canis lupus familiaris; set-up: dose 0.8 mg/kg, route intravenous
[5] = Metabolic stability assessed as intrinsic clearance per mg of protein in rat liver microsomes at 5 uM; assay type: ADME, Microsome
NIH3T3 = assay: Phototoxicity in mouse 3T3 cells by neutral red uptake phototoxicity; assay type: cell-based
[6] = Apparent volume of distribution in Beagle dog at 0.8 mg/kg, iv after 24 hrs; assay type: ADME, organism-based, Canis lupus familiaris; set-up: dose 0.8 mg/kg, route intravenous; details: in vivo, read-out: Vdss
Syrian golden hamster [7] = assay: Reduction of sebum ester production in golden syrian hamster ear topically dosed twice daily 5 days per week for two weeks; assay type: functional, Mesocricetus auratus
[8] = Mean terminal half life in Beagle dog at 0.8 mg/kg, iv after 24 hrs; assay type: ADME, organism-based, Canis lupus familiaris; set-up: dose 0.8 mg/kg, route intravenous; details: in vivo, read-out: beta t1/2 (converted)
[9] = Metabolic stability assessed as half life in rat liver microsomes at 5 uM; assay type: ADME, Microsome
Mus musculus = assay: Activation of hair growth in C3H/HeN mouse hair growth model topically dosed twice daily 5 days per week for 4 weeks; assay type: functional, organism-based

Row | Compound | IC50 (Progesterone receptor) [nM] | IC50 (Androgen receptor [1]) [nM] | IC50 (Androgen receptor [2]) [nM] | Activity (Syrian golden hamster [3]) [%] | further results
1 | C[C@H](c1ccccc1)N(C)c1cc(C(F)(F)F)c(C#N)cn1 | 1660 | – | – | – | –
2 | N#Cc1ccc([C@H]2CCCC[C@@H]2O)cc1C(F)(F)F | – | > 3000 | – | – | –
3 | N#Cc1ccc(C2CCCCC2O)cc1C(F)(F)F (racemic) | > 10000 | 26 | 90 | – | –
4 | N#Cc1ccc([C@@H]2CCCC[C@@H]2O)cc1C(F)(F)F | – | 1600 | – | – | –
5 | CC1(C)C(=O)N(c2ccc(C#N)c(C(F)(F)F)c2)C(=O)N1CCCCO [RU-58841] | 1000 | – | – | 92 | –
6 | N#Cc1ccc(-c2ccccc2O)cc1C(F)(F)F | – | – | – | 86 | –
7 | COc1cc(-c2ccccc2O)ccc1C#N | 3250 | 37 | 20.1 | 87 | –
8 | N#Cc1ccc(O[C@@H]2CCCC[C@H]2C#N)cc1C(F)(F)F | > 10000 | – | – | – | –
9 | N#Cc1ccc([C@H]2CCCC[C@H]2O)cc1C(F)(F)F | > 10000 | 37 | 43 | 85 | clearance [4]: 40 mL/min/kg; microsomal CLint at 5 µM [5]: 350 µL/min/mg; Activity (NIH3T3): Non-toxic; Vd [6]: 6.5 L/kg; ED50 (Syrian golden hamster [7]): 0.4%; half-life [8]: 2.6 h; half-life at 5 µM [9]: 4 min; Activity (Mus musculus): Active
